Series [1] is described as follows: Sensitivity to light and air. The format is physicochemical.
The nature of series [2]: Acute toxicity, Karber and Behrens method, female IFFA-CREDO mice. To be noted: mouse, in vivo. Here is the method:
Acute toxicity was determined by the intravenous and oral routes, using the Karber and Behrens method, in mice female IFFA-CREDO weighing 20 g (10 mice per dosage level).

The test system of series [3] is Staphylococcus pyogenes aureus Oxford. The series can be described thus: Antibacterial activity, dilution method: Staphylococcus pyogenes aureus Oxford. To be noted: Difco bacto-peptone medium. The format is cell-based. The method, then: (§1) The tests were carried out according to the dilution method.
(§2) To determine the activity against Staphylococcus, Proteus vulgaris, Klebsiella pneumoniae and Escherichia coli, use was made of Difco bacto-peptone medium, and nutrient broth T was used to investigate the activity against Pneumococcus.

The subject of series [4] is Streptococcus pyrogenes 5625. The series is described as follows: Antibacterial activity, dilution method: Streptococcus pyrogenes 5625. The format is cell-based. Here is the method: as §1, §2
For series [5], the system named is Diplococcus pneumoniae 692. The series can be described thus: Antibacterial activity, dilution method: Diplococcus pneumoniae 692. The format is cell-based. To be noted: for MIC: Streptococcus pneumoniae, 692, nutrient broth T. The method, then: as §1, §2
The test system of series [6] is Proteus vulgaris. The series can be described thus: Antibacterial activity, dilution method: Proteus vulgaris. The format is cell-based. To be noted: Difco bacto-peptone medium. The method, then: as §1, §2
Series [7] relates to Klebsiella pneumoniae. The series is described as follows: Antibacterial activity, dilution method: Klebsiella pneumoniae. The format is cell-based. To be noted: Difco bacto-peptone medium. Here is the method:
as §1, §2

The subject of series [8] is Escherichia coli. The series can be described thus: Antibacterial activity, dilution method: Escherichia coli. The format is cell-based. To be noted: Difco bacto-peptone medium. Here is the method:
as §1, §2

Series [9] relates to gram-positive germs. The series is described as follows: Antibacterial activity, dilution method: gram-positive germs (summary). The format is cell-based. To be noted: in words. Here is the method:
as §1, §2

Series [10] can be described thus: Solubility in physiological saline solution. The format is physicochemical.

The text below walks through data of US4054669A, “Phenolic menthene derivatives, therapeutic composition containing same and their use as therapeutic compositions” (Les Derives Resiniques et Terpeniques, priority 1975, dated 1977).

Structures are written as SMILES. In brackets after ≈: the same amount, converted by molar mass.

In the case of `CC1CC=C(c2ccc(O)cc2)C(C(C)C)C1` (stereo not shown) [m.menthene-phenol, 4-(3'-m.menthen-4'-yl)-phenol], the “sensitivity to light and air” value in [1] is “highly sensitive to light and air”.

In the case of `Cc1c(C2=CCC(C)CC2C(C)C)cc(C(C)C)c(O)c1S(=O)(=O)O` (stereo not shown) [LJ 2128, m.menthene-thymol-2-sulfonate], the LD50 – broadly, the dose expected to kill half of the subjects tested – came out at 125 mg/kg in series [2] (iv) and 1920 mg/kg in series [2] (po). In addition, the MIC (usually the least concentration at which growth counts as inhibited) in series [3] was 140 µg/mL (≈ 382 µM); in series [4] it was 16 µg/mL (≈ 43.7 µM); in [5], 12 µg/mL (≈ 32.7 µM); in series [6] it was > 1000 µg/mL; in series [7], > 1000 µg/mL; in [8] it was > 1000 µg/mL. The “activity against gram-positive germs” value in series [9] was “active against gram-positive germs”. Also, the “solubility in physiological saline solution” value in series [10] is given as “soluble in physiological saline solution, giving a clear solution”.

For `CC1CC=C(c2ccc(O)c(S(=O)(=O)O)c2)C(C(C)C)C1` (stereo not shown) [LJ 2148, sodium m.menthene-phenol-2-sulfonate], the 50% lethal dose (LD50) was determined as 305 mg/kg in series [2] (iv) and 2900 mg/kg in [2] (po). Also, the MIC in series [3] is 28 µg/mL; in [4] it was 10 µg/mL; in series [5], 3 µg/mL; in series [6] it was > 1000 µg/mL; in [7], > 1000 µg/mL; in series [8], > 1000 µg/mL. In series [5] (in words), the “activity against Diplococcus pneumoniae” value is “particularly active against Diplococcus pneumoniae”. The “activity against gram-positive germs” value in series [9] was “active against gram-positive germs”. Also, the “solubility in physiological saline solution” value in [10] was “soluble in physiological saline solution”.
